Results published in ChEMBL document CHEMBL3616370, “Pandalisines A and B, novel indolizidine alkaloids from the leaves of Pandanus utilis” (Bioorg Med Chem Lett, 2015).
Activity calls are given as the source filed them.

Assays:
Assay type in all cases: functional, cell-based
MDA-MB-231 = experiment: Cytotoxicity against human MDA-MB-231 cells at 60 ug/ml after 72 hrs by MTT assay
A549 = experiment: Cytotoxicity against human A549 cells at 60 ug/ml after 72 hrs by MTT assay
HepG2 = experiment: Cytotoxicity against human HepG2 cells at 60 ug/ml after 72 hrs by MTT assay

Measured: Activity

CC1=C/C(=C2\CCCN3CCC[C@H]23)OC1=O
inactive: MDA-MB-231 | A549 | HepG2

CC1=C/C(=C2/CCCN3CCC[C@H]23)OC1=O
inactive: MDA-MB-231 | A549 | HepG2
